ChEMBL document CHEMBL1126862, “Substituted 3-phenylpiperidines: new centrally acting dopamine autoreceptor antagonists” (J Med Chem, 1993)
pIC50, pKi: −log10 of the molar value.

How the values were obtained:
Rattus norvegicus [1] = experiment: Evaluated for 5-HTP increase in hemisphere region of nonpretreated rat at 100 umol / kg administered subcutaneously; format: functional
Rattus norvegicus [2] = experiment: Evaluated for DOPA accumulation in limbic region of nonpretreated rat at 52 umol / kg administered subcutaneously; format: functional, Limbic system
Rattus norvegicus [3] = experiment: Evaluated for 5-HTP increase in limbic region of nonpretreated rat at 52 umol / kg administered subcutaneously; format: functional, Limbic system
Rattus norvegicus [4] = experiment: Evaluated for DOPA accumulation in striatum of nonpretreated rat at 52 umol / kg administered subcutaneously; format: functional
Rattus norvegicus [5] = experiment: Evaluated in rat striatum for the effect on dopamine release and metabolism in brain dialysis model after administration of 50 umol / kg subcutaneously; format: functional; set-up: unit not given beside the values
Rattus norvegicus [6] = experiment: Evaluated for DOPA accumulation in striatum of nonpretreated rat at 25 umol / kg administered subcutaneously; format: functional
D(4) dopamine receptor [7] = molecular target: T1, D(4) dopamine receptor (Homo sapiens, UniProt P21917)
T1 sequence (P21917 whole entry): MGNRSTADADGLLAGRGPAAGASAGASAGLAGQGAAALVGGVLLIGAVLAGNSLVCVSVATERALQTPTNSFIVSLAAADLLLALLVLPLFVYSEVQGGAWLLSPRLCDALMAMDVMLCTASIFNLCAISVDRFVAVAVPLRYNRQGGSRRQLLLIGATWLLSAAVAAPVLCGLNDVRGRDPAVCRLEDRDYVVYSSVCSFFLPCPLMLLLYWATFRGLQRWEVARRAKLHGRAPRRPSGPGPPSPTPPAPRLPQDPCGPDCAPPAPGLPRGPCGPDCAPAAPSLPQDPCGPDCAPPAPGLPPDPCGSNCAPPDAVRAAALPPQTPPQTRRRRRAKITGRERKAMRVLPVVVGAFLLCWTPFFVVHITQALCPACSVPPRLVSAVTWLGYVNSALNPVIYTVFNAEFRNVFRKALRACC
Description: (§1) Binding towards dopamine receptor D4 expressed in CHO-K1 cells using [3H]spiperone

Rattus norvegicus [8] = experiment: Evaluated for rat locomotor activity in nonhabituated rats at 213 umol / kg administered subcutaneously; format: functional
Rattus norvegicus [9] = organism: Rattus norvegicus; experiment: Rat locomotor activity in reserpine pretreated rats and accumulated counts / 30 min is calculated; format: functional
Rattus norvegicus [10] = organism: Rattus norvegicus; experiment: Evaluated for rat locomotor activity in nonhabituated rats at 25 umol / kg; format: functional
Rattus norvegicus [11] = experiment: Evaluated for DOPA accumulation in limbic region of nonpretreated rat at 25 umol / kg administered subcutaneously; format: functional, Limbic system
Rattus norvegicus [12] = experiment: Evaluated for DOPA accumulation in limbic region of reserpine pretreated rat at 100 umol / kg administered intraperitoneally; format: functional, Limbic system
Rattus norvegicus [13] = experiment: Evaluated in rat striatum for the effect on DOPAC release and metabolism in brain dialysis model after administration of 50 umol / kg subcutaneously; format: functional; set-up: unit not given beside the values
D(2) dopamine receptor [14] = molecular target: T2, D(2) dopamine receptor (Bos taurus, UniProt P20288); experiment: Binding towards Dopamine receptor D2 expressed in CHO-K1 cells using [3H]U-86170; format: cell-based
D(2) dopamine receptor [15] = molecular target: T2, D(2) dopamine receptor; experiment: Evaluated for binding towards Dopamine receptor D2 using [3H]-spiperone as radioligand, in cloned mammalian receptors expressed in CHO-K1 cells; format: cell-based
Rattus norvegicus [16] = experiment: Evaluated in rat accumbens for the effect onDOPAC release and metabolism in brain dialysis model after administration of 50 umol / kg subcutaneously; format: functional
Rattus norvegicus [17] = experiment: Evaluated in rat accumbens for the effect on dopamine release and metabolism in brain dialysis model after administration of 50 umol / kg subcutaneously; format: functional
D(2) dopamine receptor [18] = molecular target: T3, D(2) dopamine receptor (Rattus norvegicus, UniProt P61169); experiment: Binding towards Dopamine receptor D2 using [3H]spiperone from rat striatal membrane
Rattus norvegicus [19] = experiment: Evaluated for rat locomotor activity in nonhabituated rats at 52 umol / kg administered subcutaneously; format: functional
D(3) dopamine receptor = D(3) dopamine receptor (Homo sapiens, UniProt P35462)
Description: Binding towards Dopamine receptor D3 expressed in CHO-K1 cells using [3H]spiperone

Rattus norvegicus [20] = organism: Rattus norvegicus; experiment: Evaluated for rat locomotor activity in nonpretreated habituated rats at 25 umol / kg; format: functional
Rattus norvegicus [21] = experiment: Evaluated for DOPA accumulation in striatum of reserpine pretreated rat at 52 umol / kg administered subcutaneously; format: functional
Rattus norvegicus [22] = experiment: Evaluated for DOPA accumulation in limbic region of reserpine pretreated rat at 52 umol / kg administered subcutaneously; format: functional, Limbic system
Rattus norvegicus [23] = experiment: Evaluated for rat locomotor activity in nonhabituated rats at 13 umol / kg administered subcutaneously; format: functional
D(2) dopamine receptor [24] = molecular target: T3, D(2) dopamine receptor; experiment: Evaluated for binding towards Dopamine receptor D2 using [3H]N-0437 as radioligand from rat striatal membrane
Rattus norvegicus [25] = experiment: Evaluated for DOPA accumulation in striatum of nonpretreated rat at 13 umol / kg administered subcutaneously; format: functional
Rattus norvegicus [26] = organism: Rattus norvegicus; experiment: Evaluated for rat locomotor activity in nonpretreated habituated rats at 100 umol / kg; format: functional; set-up: unit not given beside the values
Rattus norvegicus [27] = experiment: Evaluated for DOPA accumulation in limbic region of nonpretreated rat at 13 umol / kg administered subcutaneously; format: functional, Limbic system
Rattus norvegicus [28] = experiment: Evaluated for DOPA accumulation in striatum of reserpine pretreated rat at 100 umol / kg administered intraperitoneally; format: functional
Rattus norvegicus [29] = experiment: Evaluated in rat accumbens for the effect on DOPAC release and metabolism in brain dialysis model after administration of 50 umol / kg subcutaneously; format: functional
Rattus norvegicus [30] = organism: Rattus norvegicus; experiment: Evaluated for rat locomotor activity in nonhabituated rats at 100 umol / kg; format: functional
Rattus norvegicus [31] = experiment: Evaluated for rat locomotor activity in nonhabituated rats at 13 umol / kg administered intraperitoneally; format: functional
D(4) dopamine receptor [32] = molecular target: T1, D(4) dopamine receptor; conditions: cho-k1
Description: as §1

Rattus norvegicus [33] = experiment: Evaluated for DOPA accumulation in striatum of nonpretreated rat at 100 umol / kg administered subcutaneously; format: functional
[34] = molecular target: T4, Sigma non-opioid intracellular receptor 1 (Rattus norvegicus, UniProt Q9R0C9); experiment: Binding effinity for sigma receptor using 2 nM of [3H]DTG as radioligand, in membranes from brain minus cerebellum; format: tissue-based
Rattus norvegicus [35] = experiment: Evaluated for 5-HTP increase in limbic region of nonpretreated rat at 100 umol / kg administered subcutaneously; format: functional, Limbic system
Rattus norvegicus [36] = experiment: Evaluated for DOPA accumulation in limbic region of nonpretreated rat at 100 umol / kg administered subcutaneously; format: functional, Limbic system
Rattus norvegicus [37] = experiment: Evaluated for 5-HTP increase in limbic region of nonpretreated rat at 200 umol / kg administered subcutaneously; format: functional, Limbic system
Rattus norvegicus [38] = experiment: Evaluated for DOPA accumulation in striatum of nonpretreated rat at 200 umol / kg administered subcutaneously; format: functional
Rattus norvegicus [39] = experiment: Evaluated for 5-HTP increase in hemisphere region of nonpretreated rat at 200 umol / kg administered subcutaneously; format: functional
[40] = molecular target: T4, Sigma non-opioid intracellular receptor 1; experiment: Binding affinity for sigma receptor using 2 nM of [3H]DTG as radioligand, in membranes from brain minus cerebellum; format: tissue-based
Rattus norvegicus [41] = experiment: Evaluated for rat locomotor activity in nonhabituated rats at 200 umol / kg administered subcutaneously; format: functional
Rattus norvegicus [42] = experiment: Evaluated for DOPA accumulation in limbic region of nonpretreated rat at 200 umol / kg administered subcutaneously; format: functional, Limbic system
[43] = Half life was estimated from the elimination phase of the blood concentration curves after peroral administration; format: ADME, organism-based; conditions: po
Rattus norvegicus [44] = experiment: Evaluated for 5-HTP increase in limbic region of nonpretreated rat at 27 umol / kg administered subcutaneously; format: functional, Limbic system
Rattus norvegicus [45] = experiment: Evaluated for 5-HTP increase in hemisphere region of nonpretreated rat at 27 umol / kg administered subcutaneously; format: functional
Rattus norvegicus [46] = experiment: Evaluated for DOPA accumulation in limbic region of reserpine pretreated rat at 27 umol / kg administered subcutaneously; format: functional, Limbic system
Rattus norvegicus [47] = experiment: Evaluated for DOPA accumulation in striatum of nonpretreated rat at 100 umol / kg administered subcutaneously (p<0.05); format: functional
Rattus norvegicus [48] = experiment: Evaluated for 5-HTP increase in hemisphere region of nonpretreated rat at 100 umol / kg administered subcutaneously (p<0.05); format: functional
Rattus norvegicus [49] = organism: Rattus norvegicus; experiment: Evaluated for rat locomotor activity in nonpretreated habituated rats at 100 umol / kg (p<0.05); format: functional
Rattus norvegicus [50] = experiment: Evaluated for DOPA accumulation in limbic region of nonpretreated rat at 100 umol / kg administered subcutaneously (p<0.05); format: functional, Limbic system
Rattus norvegicus [51] = experiment: Evaluated for DOPA accumulation in limbic region of reserpine pretreated rat at 100 umol / kg administered intraperitoneally (p<0.05); format: functional, Limbic system
Rattus norvegicus [52] = organism: Rattus norvegicus; experiment: Rat locomotor activity in reserpine pretreated rats and accumulated counts / 30 min; format: functional
Rattus norvegicus [53] = organism: Rattus norvegicus; experiment: Evaluated for rat locomotor activity in nonpretreated habituated rats at 25 umol / kg (p<0.05); format: functional

Sequence of D(3) dopamine receptor (P35462 whole entry): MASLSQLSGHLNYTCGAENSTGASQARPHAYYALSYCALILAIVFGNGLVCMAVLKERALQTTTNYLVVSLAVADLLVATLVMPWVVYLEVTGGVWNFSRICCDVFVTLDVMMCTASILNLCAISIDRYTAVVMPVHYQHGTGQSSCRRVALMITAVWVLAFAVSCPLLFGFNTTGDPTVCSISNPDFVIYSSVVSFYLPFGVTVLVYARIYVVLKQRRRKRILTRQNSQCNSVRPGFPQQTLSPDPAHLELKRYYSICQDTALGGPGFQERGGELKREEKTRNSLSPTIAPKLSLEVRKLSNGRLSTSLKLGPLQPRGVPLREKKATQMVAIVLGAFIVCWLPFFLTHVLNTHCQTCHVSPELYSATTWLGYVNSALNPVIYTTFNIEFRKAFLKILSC
T4 sequence (Q9R0C9 whole entry): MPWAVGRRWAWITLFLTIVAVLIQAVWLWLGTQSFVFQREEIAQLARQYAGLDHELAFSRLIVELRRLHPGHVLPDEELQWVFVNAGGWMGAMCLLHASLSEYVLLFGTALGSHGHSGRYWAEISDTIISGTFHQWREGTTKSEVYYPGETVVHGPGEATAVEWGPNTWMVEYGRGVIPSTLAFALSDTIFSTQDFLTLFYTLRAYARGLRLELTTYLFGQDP
T2 sequence (P20288 whole entry): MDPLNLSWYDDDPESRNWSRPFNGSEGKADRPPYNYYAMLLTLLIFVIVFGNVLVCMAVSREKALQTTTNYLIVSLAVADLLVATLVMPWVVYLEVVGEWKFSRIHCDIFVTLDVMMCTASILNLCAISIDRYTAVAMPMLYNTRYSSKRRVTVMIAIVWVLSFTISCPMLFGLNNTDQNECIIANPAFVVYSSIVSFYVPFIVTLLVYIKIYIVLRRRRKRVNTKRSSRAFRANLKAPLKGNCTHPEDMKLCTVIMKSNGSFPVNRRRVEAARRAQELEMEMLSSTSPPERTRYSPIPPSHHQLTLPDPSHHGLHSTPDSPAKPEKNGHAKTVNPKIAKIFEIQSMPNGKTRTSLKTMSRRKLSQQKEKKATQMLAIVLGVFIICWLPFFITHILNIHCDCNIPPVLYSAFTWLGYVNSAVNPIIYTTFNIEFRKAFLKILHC
T3 sequence (P61169 whole entry): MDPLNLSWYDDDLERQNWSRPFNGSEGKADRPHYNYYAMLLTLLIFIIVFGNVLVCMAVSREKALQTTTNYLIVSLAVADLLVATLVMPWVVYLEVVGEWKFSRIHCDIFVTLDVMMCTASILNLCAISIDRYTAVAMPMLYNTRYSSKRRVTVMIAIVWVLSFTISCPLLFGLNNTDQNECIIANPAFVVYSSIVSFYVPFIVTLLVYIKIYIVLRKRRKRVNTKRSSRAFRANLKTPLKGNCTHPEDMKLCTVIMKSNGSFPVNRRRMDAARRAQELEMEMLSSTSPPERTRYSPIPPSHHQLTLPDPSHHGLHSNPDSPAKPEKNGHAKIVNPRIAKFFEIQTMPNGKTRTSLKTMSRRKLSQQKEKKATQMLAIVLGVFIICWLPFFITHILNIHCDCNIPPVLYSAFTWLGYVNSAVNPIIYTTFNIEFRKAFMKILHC

SMILES	Activity (Rattus norvegicus [2])	Activity (Rattus norvegicus [4])	Activity (Rattus norvegicus [5])	Activity (Rattus norvegicus [6])	pKi (D(4) dopamine receptor [7])	Activity (Rattus norvegicus [9])	Activity (Rattus norvegicus [10])	Activity (Rattus norvegicus [11])	Activity (Rattus norvegicus [12])	Activity (Rattus norvegicus [13])	pKi (D(2) dopamine receptor [14])	pKi (D(2) dopamine receptor [15])	Activity (Rattus norvegicus [17])	pKi (D(2) dopamine receptor [18])	pKi (D(3) dopamine receptor)	Activity (Rattus norvegicus [20])	Activity (Rattus norvegicus [22])	pKi (D(2) dopamine receptor [24])	Activity (Rattus norvegicus [26])	Activity (Rattus norvegicus [28])	also measured
CCCN1CCCC(c2cccc(C#N)c2)C1 (racemic)	198	281	–	–	–	–	–	–	–	–	–	–	–	–	–	–	–	–	–	–	Activity (Rattus norvegicus [1]): 103; Activity (Rattus norvegicus [3]): 99
CCCN1CCCC(c2cccc(O)c2)C1 (single isomer, unassigned; (+))	–	–	28	43	< 6.00	78	75	37	18	42	7.49	6.11	–	–	–	–	–	–	–	–	Activity (Rattus norvegicus [8]): 230
CCCN[C@@H]1CCc2c(OC)cccc2[C@@H]1C	253	400	285	–	6.93	11	–	–	–	315	6.84	6.80	313	6.28	7.59	300	108	6.52	350	–	Activity (Rattus norvegicus [16]): 235; Activity (Rattus norvegicus [19]): 159; Activity (Rattus norvegicus [21]): 102; Activity (Rattus norvegicus [23]): 155; Activity (Rattus norvegicus [25]): 330; Activity (Rattus norvegicus [27]): 223
CCCN(CCC)[C@@H]1CCc2c(OC)cccc2[C@@H]1C	245	370	209	–	7.32	29	–	–	116	307	7.89	7.74	231	7.15	8.40	220	–	7.00	220	109	Activity (Rattus norvegicus [29]): 207; Activity (Rattus norvegicus [25]): 270; Activity (Rattus norvegicus [30]): 70; Activity (Rattus norvegicus [31]): 140; Activity (Rattus norvegicus [27]): 180
CCCN1CCCC(c2cccc(C#N)c2)C1 (single isomer, unassigned; (-))	–	–	295	285	–	12	–	204	–	299	6.92	6.05	294	5.94	6.60	418	136	6.40	719	105	pKi (D(4) dopamine receptor [32]): < 6.03; Activity (Rattus norvegicus [33]): 268; pIC50 [34]: 5.66; Activity (Rattus norvegicus [35]): 148; Activity (Rattus norvegicus [36]): 219
CCCN1CCCC(c2cccc(C#N)c2)C1 (single isomer, unassigned; (+))	–	–	–	84	< 6.03	6	104	109	–	–	5.76	< 5.70	–	4.90	< 5.85	–	93	5.31	559	81	Activity (Rattus norvegicus [37]): 71; Activity (Rattus norvegicus [38]): 78; Activity (Rattus norvegicus [39]): 94; pIC50 [40]: 6.28; Activity (Rattus norvegicus [41]): 118; Activity (Rattus norvegicus [42]): 94
CCCN1CCC[C@@H](c2cccc(OS(=O)(=O)C(F)(F)F)c2)C1	–	–	208	221	–	25	128	139	94	162	–	–	153	–	–	–	–	–	–	89	Activity (Rattus norvegicus [1]): 108; Activity (Rattus norvegicus [29]): 152; Activity (Rattus norvegicus [33]): 264; pIC50 [34]: 7.49; Activity (Rattus norvegicus [35]): 102; half-life [43]: 3.5 h; Activity (Rattus norvegicus [30]): 129
CCCN1CCCC(c2cccc(O)c2)C1 (single isomer, unassigned; (-))	–	–	700	147	6.89	12	74	91	–	70	8.07	6.86	98	–	–	–	–	–	208	–	Activity (Rattus norvegicus [44]): 89; Activity (Rattus norvegicus [45]): 87; Activity (Rattus norvegicus [8]): 40; Activity (Rattus norvegicus [29]): 115; Activity (Rattus norvegicus [46]): 30
CCCN1CCC[C@H](c2cccc(OS(=O)(=O)C(F)(F)F)c2)C1	–	–	–	92	–	–	115	93	–	–	–	–	–	–	–	–	–	–	–	80	Activity (Rattus norvegicus [47]): 80; Activity (Rattus norvegicus [48]): 86; Activity (Rattus norvegicus [49]): 34; Activity (Rattus norvegicus [50]): 82; pIC50 [34]: 8.22; Activity (Rattus norvegicus [51]): 75; Activity (Rattus norvegicus [35]): 86; Activity (Rattus norvegicus [30]): 95; Activity (Rattus norvegicus [52]): 2; Activity (Rattus norvegicus [53]): 30
